Experimental data: ChEMBL document CHEMBL1201862, “PubChem BioAssay data set” (2004)
One block for each compound: values may come before it. Calls of active or inactive are those of the source.

How the values were obtained:
Troponin, cardiac muscle = Troponin, cardiac muscle (Homo sapiens, UniProt P19429+P45379+P63316); test: compounds desensitizing RTF to calcium – biochemical, fluorescence, cardiac regulated thin filaments, triplicate IC50, dose response (AID 504742); format: protein-complex assay
[1] = target: T1, 1-phosphatidylinositol 4,5-bisphosphate phosphodiesterase gamma-1 (Homo sapiens, UniProt P19174); test: Counterscreen for inhibitors of phospholipase C isozymes (PLC-B3): Fluorescence-based biochemical high throughput dose response assay to identify inhibitors of phospholipase C isozymes (PLC-gamma1).
T1 sequence (P19174 whole entry): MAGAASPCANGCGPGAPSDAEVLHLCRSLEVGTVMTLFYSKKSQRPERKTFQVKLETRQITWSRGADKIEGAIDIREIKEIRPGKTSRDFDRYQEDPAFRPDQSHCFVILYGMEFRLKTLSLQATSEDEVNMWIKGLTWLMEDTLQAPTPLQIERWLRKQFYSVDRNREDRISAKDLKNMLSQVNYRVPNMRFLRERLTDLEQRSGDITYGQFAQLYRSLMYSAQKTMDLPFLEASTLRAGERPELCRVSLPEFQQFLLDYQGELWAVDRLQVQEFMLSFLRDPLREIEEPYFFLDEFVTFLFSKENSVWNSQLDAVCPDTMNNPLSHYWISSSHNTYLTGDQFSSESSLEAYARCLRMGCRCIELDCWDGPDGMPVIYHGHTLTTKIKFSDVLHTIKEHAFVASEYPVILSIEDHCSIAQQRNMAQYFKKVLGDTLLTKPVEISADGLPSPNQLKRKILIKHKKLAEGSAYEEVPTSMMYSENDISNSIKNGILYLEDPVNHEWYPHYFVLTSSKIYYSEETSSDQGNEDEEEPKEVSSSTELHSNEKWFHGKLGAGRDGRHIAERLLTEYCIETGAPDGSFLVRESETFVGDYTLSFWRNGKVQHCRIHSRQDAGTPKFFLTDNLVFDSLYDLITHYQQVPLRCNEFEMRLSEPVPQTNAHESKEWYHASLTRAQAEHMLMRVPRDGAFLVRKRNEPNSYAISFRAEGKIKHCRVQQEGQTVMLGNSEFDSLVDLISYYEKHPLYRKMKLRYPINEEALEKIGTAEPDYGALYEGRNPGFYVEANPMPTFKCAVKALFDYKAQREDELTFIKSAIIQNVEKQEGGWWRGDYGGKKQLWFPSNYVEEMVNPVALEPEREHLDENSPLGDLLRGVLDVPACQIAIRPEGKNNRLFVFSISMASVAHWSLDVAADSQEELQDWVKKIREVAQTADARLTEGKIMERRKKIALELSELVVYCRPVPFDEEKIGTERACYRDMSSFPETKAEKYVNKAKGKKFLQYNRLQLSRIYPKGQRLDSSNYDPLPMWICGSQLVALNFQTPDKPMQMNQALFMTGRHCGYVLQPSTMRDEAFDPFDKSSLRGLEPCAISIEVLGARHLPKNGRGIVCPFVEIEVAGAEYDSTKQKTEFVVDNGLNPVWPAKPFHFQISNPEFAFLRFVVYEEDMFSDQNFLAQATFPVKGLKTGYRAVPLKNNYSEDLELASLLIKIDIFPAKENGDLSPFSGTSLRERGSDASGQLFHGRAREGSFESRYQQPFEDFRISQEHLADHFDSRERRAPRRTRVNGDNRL

[2] = target: Intestinal-type alkaline phosphatase (Mus musculus, UniProt P24822); test: PubChem AID 488785; format: functional
[3] = target: Intestinal-type alkaline phosphatase (Homo sapiens, UniProt P09923); test: inhibition of human intestinal alkaline phosphatase – biochemical, dose response (AID 488876); format: functional
[4] = target: T2, 1-phosphatidylinositol 4,5-bisphosphate phosphodiesterase beta-3 (Homo sapiens, UniProt Q01970); test: Fluorescence-based biochemical high throughput dose response assay to identify inhibitors of phospholipase C isozymes (PLC-B3).
T2 sequence (Q01970 whole entry): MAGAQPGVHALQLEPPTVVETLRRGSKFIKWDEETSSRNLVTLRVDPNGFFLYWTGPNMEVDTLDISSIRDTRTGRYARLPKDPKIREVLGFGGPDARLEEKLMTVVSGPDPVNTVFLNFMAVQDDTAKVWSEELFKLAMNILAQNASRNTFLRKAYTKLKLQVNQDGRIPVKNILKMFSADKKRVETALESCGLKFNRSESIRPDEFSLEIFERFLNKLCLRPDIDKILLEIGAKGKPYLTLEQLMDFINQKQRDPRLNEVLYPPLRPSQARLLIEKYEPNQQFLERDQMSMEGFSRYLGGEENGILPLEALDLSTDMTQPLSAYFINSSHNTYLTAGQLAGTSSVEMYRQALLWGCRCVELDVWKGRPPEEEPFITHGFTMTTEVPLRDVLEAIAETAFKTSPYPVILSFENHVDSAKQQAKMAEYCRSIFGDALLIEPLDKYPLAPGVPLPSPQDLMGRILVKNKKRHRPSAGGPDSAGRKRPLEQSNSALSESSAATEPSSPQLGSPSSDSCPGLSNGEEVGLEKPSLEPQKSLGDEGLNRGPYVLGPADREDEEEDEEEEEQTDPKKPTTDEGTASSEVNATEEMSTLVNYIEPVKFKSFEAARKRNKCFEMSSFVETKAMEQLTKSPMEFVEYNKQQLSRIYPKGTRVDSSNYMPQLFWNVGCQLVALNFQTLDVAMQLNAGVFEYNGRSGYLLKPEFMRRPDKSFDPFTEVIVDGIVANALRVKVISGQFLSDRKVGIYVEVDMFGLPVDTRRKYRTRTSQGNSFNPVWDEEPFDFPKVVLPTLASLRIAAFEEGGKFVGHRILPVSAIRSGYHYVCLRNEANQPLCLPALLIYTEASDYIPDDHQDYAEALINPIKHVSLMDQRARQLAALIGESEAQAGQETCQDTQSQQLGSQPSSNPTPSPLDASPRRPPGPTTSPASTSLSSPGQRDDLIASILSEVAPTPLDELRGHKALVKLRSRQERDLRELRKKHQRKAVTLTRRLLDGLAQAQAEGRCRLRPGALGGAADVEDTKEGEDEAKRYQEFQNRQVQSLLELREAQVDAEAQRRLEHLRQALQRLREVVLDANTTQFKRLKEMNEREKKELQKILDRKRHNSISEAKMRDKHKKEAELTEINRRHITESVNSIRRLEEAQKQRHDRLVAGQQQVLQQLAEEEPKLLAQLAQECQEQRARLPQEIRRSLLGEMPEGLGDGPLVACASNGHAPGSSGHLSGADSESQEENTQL

[5] = target: T3, Polyadenylate-binding protein 1 (Homo sapiens, UniProt P11940); test: MLLE binding blockers, Cy5 peptide tracer – biochemical, fluorescence polarization, Cy5-PAM2 peptide, secondary, miRNA deadenylation inhibitor project, dose response (AID 602260); format: functional; settings: read-out: IC50_Mean
[6] = A549 cell cytotoxicity, dose response, cytotoxicity control, plate reader, cherry-pick, antagonist series (AID 743412); format: functional, cell-based
[7] = target: T3, Polyadenylate-binding protein 1; test: MLLE domain peptide-binding blockers, IC50 – biochemical, fluorescence polarization, FITC-PAM2 peptide, dose response (AID 602259); format: functional; settings: read-out: IC50_Mean

T3 sequence (P11940 whole entry): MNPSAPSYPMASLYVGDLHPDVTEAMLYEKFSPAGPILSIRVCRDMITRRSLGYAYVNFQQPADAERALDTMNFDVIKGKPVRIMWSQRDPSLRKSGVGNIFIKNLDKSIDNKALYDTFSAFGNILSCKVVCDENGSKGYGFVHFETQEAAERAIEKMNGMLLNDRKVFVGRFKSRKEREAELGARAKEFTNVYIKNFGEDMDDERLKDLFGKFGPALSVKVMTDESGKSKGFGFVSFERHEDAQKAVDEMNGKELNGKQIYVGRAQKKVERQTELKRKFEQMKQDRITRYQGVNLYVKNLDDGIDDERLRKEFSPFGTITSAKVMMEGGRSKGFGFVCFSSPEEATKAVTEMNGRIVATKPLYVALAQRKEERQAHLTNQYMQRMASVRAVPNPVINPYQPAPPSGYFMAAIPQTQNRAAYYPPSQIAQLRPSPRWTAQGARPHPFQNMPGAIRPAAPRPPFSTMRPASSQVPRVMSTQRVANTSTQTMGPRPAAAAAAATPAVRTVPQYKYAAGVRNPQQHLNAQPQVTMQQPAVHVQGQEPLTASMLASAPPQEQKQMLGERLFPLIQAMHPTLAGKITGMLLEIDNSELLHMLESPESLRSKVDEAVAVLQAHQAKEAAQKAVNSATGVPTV
Intestinal-type alkaline phosphatase (Mus musculus, UniProt P24822), sequence (P24822 whole entry): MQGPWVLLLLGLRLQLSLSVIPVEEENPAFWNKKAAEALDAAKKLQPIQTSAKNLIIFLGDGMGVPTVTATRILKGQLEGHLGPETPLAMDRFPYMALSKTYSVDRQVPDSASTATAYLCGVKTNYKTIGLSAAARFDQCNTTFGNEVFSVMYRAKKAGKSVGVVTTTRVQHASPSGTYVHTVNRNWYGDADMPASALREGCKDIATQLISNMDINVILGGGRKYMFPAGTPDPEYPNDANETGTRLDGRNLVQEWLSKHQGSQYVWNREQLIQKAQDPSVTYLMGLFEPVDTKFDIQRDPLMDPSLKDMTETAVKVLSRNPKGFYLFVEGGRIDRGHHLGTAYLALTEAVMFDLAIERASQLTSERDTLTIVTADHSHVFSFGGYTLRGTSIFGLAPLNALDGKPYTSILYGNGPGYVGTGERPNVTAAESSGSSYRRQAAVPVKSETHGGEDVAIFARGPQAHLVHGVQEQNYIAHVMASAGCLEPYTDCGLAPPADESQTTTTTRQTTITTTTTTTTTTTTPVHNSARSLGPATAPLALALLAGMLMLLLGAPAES
Intestinal-type alkaline phosphatase (Homo sapiens, UniProt P09923), sequence (P09923 whole entry): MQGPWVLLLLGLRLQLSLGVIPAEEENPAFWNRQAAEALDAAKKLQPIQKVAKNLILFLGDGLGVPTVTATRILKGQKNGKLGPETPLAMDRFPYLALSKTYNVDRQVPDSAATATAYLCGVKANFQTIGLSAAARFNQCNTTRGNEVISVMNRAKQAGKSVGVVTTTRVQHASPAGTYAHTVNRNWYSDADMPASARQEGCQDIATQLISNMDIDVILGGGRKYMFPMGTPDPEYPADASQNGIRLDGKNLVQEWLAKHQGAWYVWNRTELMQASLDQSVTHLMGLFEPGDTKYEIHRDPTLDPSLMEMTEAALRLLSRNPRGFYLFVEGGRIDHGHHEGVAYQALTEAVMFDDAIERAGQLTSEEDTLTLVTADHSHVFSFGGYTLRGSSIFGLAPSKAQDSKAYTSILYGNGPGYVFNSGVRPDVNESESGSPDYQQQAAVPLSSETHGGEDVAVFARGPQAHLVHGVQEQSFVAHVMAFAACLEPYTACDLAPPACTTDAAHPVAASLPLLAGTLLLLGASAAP

Compound: O=C(O)c1cc(N2N=C(C(F)(F)F)/C(=C/C=C/c3ccco3)C2=O)ccc1Cl
IC50 (Troponin, cardiac muscle): > 2.65 µM (active)

IC50 [1]: > 122 µM (inactive)
IC50 [2]: 9.52 µM (active)
IC50 [3]: > 100 µM (inactive)
IC50 [4]: > 122 µM (inactive)
Compound: O=C(/C=C/c1ccco1)NC(=S)Nc1cccc(C(=O)O)c1

Compound: CNCc1ccccc1Sc1ccc(O)c(O)c1
IC50 [5]: > 66 µM (inactive)
AC50 [6]: > 52 µM (inactive)
IC50 [7]: > 66 µM (inactive)
